Values quoted from earlier work, collected in PMC10555500, “Evaluation of the Antiproliferative Properties of CpRu Complexes Containing N-Methylated Triazaphosphaadamantane Derivatives” (Bioinorganic Chemistry and Applications, 2023).

Experiments:
Set-up in all cases: method as in doi:10.1021/acsomega.8b02849, PMID 31241925
Details in all cases: positive control; ref [44], [45]; cited from earlier work
[1] = system: MDA-MB-231 breast cancer cells
[2] = system: MCF-7 breast cancer cells
[3] = system: normal human fibroblasts (HDF)

N.N.[Cl][Pt][Cl] [Cisplatin, cis-[PtCl2(NH3)2]]
IC50 [1]: > 100 µM
IC50 [2]: 38 ± 1.4 µM
IC50 [3]: ~100 µM
